# From patent publication US20260166046A1, “Inhibitors of methionine aminopeptidase-2 and methods of preparation and uses thereof” (Primetime Life Sciences LLC, priority 2022, published 2026)
# Where two headings read alike, the source gives them in different places.
# How the values were obtained:
# Recombinant human MetAP2 = biological target: T1, Recombinant human MetAP2 (Homo sapiens, UniProt P50579); assay: MetAP2 fluorescence assay; type: biochemical; settings: recombinant human MetAP2, H-Met-Gly-Pro-AMC substrate
# T1 construct: purchased Bio-Techne/R&D systems
# T1 sequence (P50579 whole entry): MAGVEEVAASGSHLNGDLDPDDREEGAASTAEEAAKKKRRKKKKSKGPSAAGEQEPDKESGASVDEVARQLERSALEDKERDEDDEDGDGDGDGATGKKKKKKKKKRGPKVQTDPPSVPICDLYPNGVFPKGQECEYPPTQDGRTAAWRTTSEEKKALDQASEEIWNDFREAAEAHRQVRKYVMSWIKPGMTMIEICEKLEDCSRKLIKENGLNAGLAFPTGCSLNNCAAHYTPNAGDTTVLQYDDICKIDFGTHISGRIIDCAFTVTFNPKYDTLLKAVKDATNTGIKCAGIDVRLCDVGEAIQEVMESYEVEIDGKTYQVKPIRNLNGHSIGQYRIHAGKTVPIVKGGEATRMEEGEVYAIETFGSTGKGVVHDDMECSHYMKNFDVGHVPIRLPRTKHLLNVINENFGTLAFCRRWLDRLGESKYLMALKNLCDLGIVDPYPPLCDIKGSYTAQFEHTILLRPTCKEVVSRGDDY
# Experimental: MetAP2 Fluorescence Assay
# Recombinant human MetAP2 (Bio-Techne/R&D systems) was diluted to 10 μg/mL in the assay buffer (50 mM HEPES, 0.1 mM CoCl2, 100 mM NaCl, pH 7.5). The substrate, H-Met-Gly-Pro-AMC (Bio-Techne/R&D systems), was diluted to 500 μM with 2 μg/mL of the coupling enzyme, recombinant human dipeptidyl peptidase-4 (Bio-Techne/R&D systems), in assay buffer. 50 μL of 10 μg/mL recombinant human METAP2 were loaded into a flat-bottom black 96-well plate (Greiner Bio), and the reaction was initiated by adding 50 μL of the substrate/dipeptidyl peptidase-4 mixture. The reaction mixture was incubated at room temperature for 10 minutes, and the fluorescence was measured for 5 minutes at excitation and emission wavelengths of 380 nm and 460 nm, respectively, in kinetic mode. For IC50determination, 0.5 μL inhibitor solution was added to the reaction mixture. The reaction rates were used to calculate IC50with KaleidaGraph.
# G. lamblia GS = assay: Trophozoite viability IC50 determination, Giardia assay (ATPLite); type: cell-based; settings: read-out: Cell viability values Mean IC50 (nM) G. lamblia GS
# Experimental: (§1) Giardia cultures: Trophozoites of G. lamblia isolates WB and GS were grown anaerobically in borosilicate glass screw-cap culture tubes (Fisher Scientific) at pH 7.0 in modified TYI-S-33 medium. The medium was supplemented with 10% heat-inactivated bovine serum (Sigma-Aldrich) and 0.05% bovine bile (Sigma-Aldrich). To attain low-oxygen-tension conditions, the tubes were filled to 85 to 90% of their total volume capacity and incubated without shaking at 37° C. Subcultures (2×10^5 trophozoites per tube) were made three times a week. Detachment of trophozoites for inoculation was achieved by chilling the cultures on ice for 20 min. Culturing and detachment of Metronidazole-resistant G. lamblia Assemblage A 713M3 and assemblage B 1279-M1 trophozoites followed the same protocol, except that the growth medium was supplemented with metronidazole gradually increasing the concentration to 10 μM. Amebae cultures: E. histolytica strain HM1:IMSS trophozoites were grown at 37° C. in TYI-S-33 medium supplemented with penicillin (100 U/mL) and streptomycin sulfate (100 μg/mL). Trophozoites were grown anaerobically in borosilicate tubes and subcultures were made 1-2 times a week. Trophozoites were detached for inoculation by chilling the cultures on ice for 20 minutes.
# (§2) Trophozoite viability IC50determination
# (§3) Giardia assays: 10 μL giardia trophozoites in growth medium were plated at a density of 10,000 cells/well in sterile 96-well black clear bottom assay plates. Fumagillin and fumagillol derivatives were 1:3 serially diluted from a 1 μM DMSO stock solution and then 100 μL/well were transferred in duplicate to the assay wells. Metronidazole (control) was 1:3 serially diluted in growth medium from a 100 μM stock solution in DMSO. The assay plates were placed in a BD GasPak™ EZ Container System (BD Diagnostics) to create an anaerobic growth environment. The sealed containers were incubated at 37° C. for 72 hr. Following incubation, 70 μL/well of the ATPLite reagent (PerkinElmer) was added to the assay plates for one-step lysis and ATP level detection. The luminescent signals of the assay plates were measured on an EnSpire 2300 plate reader (PerkinElmer). Concentration response titration points for each compound were fitted to a 4-parameters logistic nonlinear regression model using KaleidaGraph, yielding the IC50value and standard error (SE).
# G. lamblia WB = assay: as above; type: cell-based; settings: Giardia duodenalis, read-out: Cell viability values Mean IC50 (nM) G. lamblia WB
# Experimental: as §1, §2, §3
# E. histolytica HM1: IMSS = assay: Trophozoite viability IC50 determination, Amebae assay (ATPLite); type: cell-based; settings: Entamoeba histolytica, read-out: Cell viability values Mean IC50 (nM) E. histolytica HM1: IMSS
# Experimental: as §1, §2, §3
# Amebae assays: The protocol is identical to that described above except that the trophozoites were plated at a density of 5000 cells/well because of their larger size.
# [1] = Giardia duodenalis, trophozoites, 72 hr, anaerobic, ATP level
# [2] = trophozoites, 72 hr, anaerobic, ATP level
Structure (SMILES),IC50 (Recombinant human MetAP2) [nM],"IC50 (G. lamblia GS; Giardia duodenalis, 72 h) [nM]",IC50 (G. lamblia WB; 72 h) [nM],IC50 (E. histolytica HM1: IMSS; 72 h) [nM],IC50 (G. lamblia GS; [1]) [nM],IC50 (G. lamblia WB; [2]) [nM],IC50 (E. histolytica HM1: IMSS; [2]) [nM],IC50 (G. lamblia GS; [2]) [nM]
CO[C@@H]1[C@H](OC(=O)NCc2ccc(B(O)O)cc2)CC[C@]2(CO2)[C@H]1[C@@]1(C)O[C@@H]1CC=C(C)C [No 30],< 10,101 to 1000,101 to 1000,101 to 1000,,,,
COc1nsc(CNC(=O)OC2CCC3(CO3)C(C3(C)OC3CC=C(C)C)C2OC)c1B(O)O (stereo not drawn) [No 57],,101 to 1000,> 1000,> 1000,,,,
COC1C(OC(=O)NCc2ccc(F)cc2B(O)O)CCC2(CO2)C1C1(C)OC1CC=C(C)C (stereo not drawn) [No 32],,101 to 1000,> 1000,> 1000,,,,
COC1C(OC(=O)NCCn2cc(B(O)O)cn2)CCC2(CO2)C1C1(C)OC1CC=C(C)C (stereo not drawn) [No 61],,101 to 1000,> 1000,> 1000,,,,
CO[C@@H]1[C@H](OC(=O)Nc2cc(C#N)ccc2B(O)O)CC[C@]2(CO2)[C@H]1[C@@]1(C)O[C@@H]1CC=C(C)C [No 24],< 10,101 to 1000,101 to 1000,> 1000,,,,
CO[C@@H]1[C@H](OC(=O)Nc2cc(B(O)O)cc(C(=O)O)c2)CC[C@]2(CO2)[C@H]1[C@@]1(C)O[C@@H]1CC=C(C)C [No 21],< 10,101 to 1000,101 to 1000,101 to 1000,,,,
CO[C@@H]1[C@H](OC(=O)N2CCC(B(O)O)CC2)CC[C@]2(CO2)[C@H]1[C@@]1(C)O[C@@H]1CC=C(C)C [No 52],< 10,10.1 to 100,101 to 1000,> 1000,,,,
CO[C@@H]1[C@H](OC(=O)Nc2ccc3c(c2)B(O)OCC3)CC[C@]2(CO2)[C@H]1[C@@]1(C)O[C@@H]1CC=C(C)C [No 14],< 10,10.1 to 100,101 to 1000,101 to 1000,,,,
CO[C@@H]1[C@H](OC(=O)N2CCc3cc(B(O)O)ccc3C2)CC[C@]2(CO2)[C@H]1[C@@]1(C)O[C@@H]1CC=C(C)C [No 44],< 10,10.1 to 100,> 1000,> 1000,,,,
CO[C@@H]1[C@H](OC(=O)NCc2c(F)cc(B(O)O)cc2F)CC[C@]2(CO2)[C@H]1[C@@]1(C)O[C@@H]1CC=C(C)C [No 43],< 10,101 to 1000,> 1000,> 1000,,,,
CO[C@@H]1[C@H](OC(=O)NCc2cc(F)ccc2B(O)O)CC[C@]2(CO2)[C@H]1[C@@]1(C)O[C@@H]1CC=C(C)C [No 31],< 10,101 to 1000,101 to 1000,> 1000,,,,
CO[C@@H]1[C@H](OC(=O)Nc2cccc(B(O)O)c2)CC[C@]2(CO2)[C@H]1[C@@]1(C)O[C@@H]1CC=C(C)C [No 18],< 10,10.1 to 100,101 to 1000,101 to 1000,,,,
"CO[C@@H]1[C@H](OC(=O)Nc2ccc3c(c2)COB3O)CC[C@]2(CO2)[C@H]1[C@@]1(C)O[C@@H]1CC=C(C)C [No 1, (3R,4S,5S,6R)-5-methoxy-4-((2R,3R)-2-methyl-3-(3-methylbut-2-en-1-yl)oxiran-2-yl)-1-oxaspiro[2.5]octan-6-yl (1-hydroxy-1,3-dihydrobenzo[c][1,2]oxaborol-5-yl)carbamate]",,,,,< 10,< 10,< 10,
CO[C@@H]1[C@H](OC(=O)Nc2ccc3c(c2)B(O)OC3C)CC[C@]2(CO2)[C@H]1[C@@]1(C)O[C@@H]1CC=C(C)C (stereo partly drawn) [No 7],< 10,,,,,,,< 10
CO[C@@H]1[C@H](OC(=O)Nc2cc3c(cc2F)B(O)OC3(C)C)CC[C@]2(CO2)[C@H]1[C@@]1(C)O[C@@H]1CC=C(C)C [No 4],< 10,,,,,,,< 10
CO[C@@H]1[C@H](OC(=O)Nc2cc(F)c3c(c2)B(O)OC3)CC[C@]2(CO2)[C@H]1[C@@]1(C)O[C@@H]1CC=C(C)C [No 8],< 10,,,,,,,< 10
CO[C@@H]1[C@H](OC(=O)N[C@@H](CC(C)C)B(O)O)CC[C@]2(CO2)[C@H]1[C@@]1(C)O[C@@H]1CC=C(C)C [No 67],< 10,10.1 to 100,101 to 1000,101 to 1000,,,,

Structure (SMILES),IC50 (Recombinant human MetAP2) [nM],"IC50 (G. lamblia GS; Giardia duodenalis, 72 h) [nM]",IC50 (G. lamblia WB; 72 h) [nM],IC50 (E. histolytica HM1: IMSS; 72 h) [nM],IC50 (G. lamblia GS; [1]) [nM],IC50 (G. lamblia WB; [2]) [nM],IC50 (E. histolytica HM1: IMSS; [2]) [nM],IC50 (G. lamblia GS; [2]) [nM]
CO[C@@H]1[C@H](OC(=O)NCc2ccc(B(O)O)o2)CC[C@]2(CO2)[C@H]1[C@@]1(C)O[C@@H]1CC=C(C)C [No 55],< 10,101 to 1000,> 1000,> 1000,,,,
CO[C@@H]1[C@H](OC(=O)NCCB(O)O)CC[C@]2(CO2)[C@H]1[C@@]1(C)O[C@@H]1CC=C(C)C [No 63],< 10,10.1 to 100,101 to 1000,101 to 1000,,,,
CO[C@@H]1[C@H](OC(=O)N(C)c2ccc(B(O)O)cc2)CC[C@]2(CO2)[C@H]1[C@@]1(C)O[C@@H]1CC=C(C)C [No 20],< 10,,,,101 to 1000,101 to 1000,101 to 1000,
CO[C@@H]1[C@H](OC(=O)N2CCc3cc(B(O)O)ccc32)CC[C@]2(CO2)[C@H]1[C@@]1(C)O[C@@H]1CC=C(C)C [No 58],< 10,101 to 1000,> 1000,> 1000,,,,
COC1C(OC(=O)NCc2cncc(B(O)O)c2)CCC2(CO2)C1C1(C)OC1CC=C(C)C (stereo not drawn) [No 42],,101 to 1000,> 1000,> 1000,,,,
CO[C@@H]1[C@H](OC(=O)Nc2c(B(O)O)ccnc2Cl)CC[C@]2(CO2)[C@H]1[C@@]1(C)O[C@@H]1CC=C(C)C [No 47],< 10,101 to 1000,> 1000,> 1000,,,,
CO[C@@H]1[C@H](OC(=O)Nc2cccc(B(O)O)c2Cl)CC[C@]2(CO2)[C@H]1[C@@]1(C)O[C@@H]1CC=C(C)C [No 45],< 10,101 to 1000,> 1000,> 1000,,,,
CO[C@@H]1[C@H](OC(=O)Nc2ccc3c(c2)CCOB3O)CC[C@]2(CO2)[C@H]1[C@@]1(C)O[C@@H]1CC=C(C)C [No 13],< 10,< 10,10.1 to 100,101 to 1000,,,,
COC(=O)c1cc(NC(=O)OC2CCC3(CO3)C(C3(C)OC3CC=C(C)C)C2OC)cc(B(O)O)c1 (stereo not drawn) [No 27],,101 to 1000,101 to 1000,101 to 1000,,,,
COC1C(OC(=O)N2CCOc3c(B(O)O)cncc32)CCC2(CO2)C1C1(C)OC1CC=C(C)C (stereo not drawn) [No 66],,101 to 1000,> 1000,> 1000,,,,
COC(=O)c1ccc(B(O)O)c(NC(=O)OC2CCC3(CO3)C(C3(C)OC3CC=C(C)C)C2OC)c1 (stereo not drawn) [No 26],,101 to 1000,> 1000,> 1000,,,,
COC1C(OC(=O)N2CC(B(O)O)Cn3ccnc32)CCC2(CO2)C1C1(C)OC1CC=C(C)C (stereo not drawn) [No 56],,101 to 1000,> 1000,> 1000,,,,
CO[C@@H]1[C@H](OC(=O)N(C)c2ccc3c(c2)COB3O)CC[C@]2(CO2)[C@H]1[C@@]1(C)O[C@@H]1CC=C(C)C [No 5],< 10,,,,,,,
COC1C(OC(=O)N2CCC(n3cc(B(O)O)cn3)CC2)CCC2(CO2)C1C1(C)OC1CC=C(C)C (stereo not drawn) [No 46],,101 to 1000,> 1000,> 1000,,,,
COC1C(OC(=O)NCc2cc(C#N)cc(B(O)O)c2)CCC2(CO2)C1C1(C)OC1CC=C(C)C (stereo not drawn) [No 36],,101 to 1000,> 1000,> 1000,,,,
CO[C@@H]1[C@H](OC(=O)NCCc2ccccc2B(O)O)CC[C@]2(CO2)[C@H]1[C@@]1(C)O[C@@H]1CC=C(C)C [No 39],< 10,101 to 1000,> 1000,,,,,
